ChEMBL document CHEMBL1156444, “Structure-based design, synthesis, evaluation, and crystal structures of transition state analogue inhibitors of inosine monophosphate cyclohydrolase” (J Biol Chem, 2007)

Experiments:
[1] = Inhibition of Escherichia coli GAR transformylase
[2] = molecular target: T1, Trifunctional purine biosynthetic protein adenosine-3 (Homo sapiens, UniProt P22102); test: Inhibition of human recombinant GAR transformylase
T1 sequence (P22102 whole entry): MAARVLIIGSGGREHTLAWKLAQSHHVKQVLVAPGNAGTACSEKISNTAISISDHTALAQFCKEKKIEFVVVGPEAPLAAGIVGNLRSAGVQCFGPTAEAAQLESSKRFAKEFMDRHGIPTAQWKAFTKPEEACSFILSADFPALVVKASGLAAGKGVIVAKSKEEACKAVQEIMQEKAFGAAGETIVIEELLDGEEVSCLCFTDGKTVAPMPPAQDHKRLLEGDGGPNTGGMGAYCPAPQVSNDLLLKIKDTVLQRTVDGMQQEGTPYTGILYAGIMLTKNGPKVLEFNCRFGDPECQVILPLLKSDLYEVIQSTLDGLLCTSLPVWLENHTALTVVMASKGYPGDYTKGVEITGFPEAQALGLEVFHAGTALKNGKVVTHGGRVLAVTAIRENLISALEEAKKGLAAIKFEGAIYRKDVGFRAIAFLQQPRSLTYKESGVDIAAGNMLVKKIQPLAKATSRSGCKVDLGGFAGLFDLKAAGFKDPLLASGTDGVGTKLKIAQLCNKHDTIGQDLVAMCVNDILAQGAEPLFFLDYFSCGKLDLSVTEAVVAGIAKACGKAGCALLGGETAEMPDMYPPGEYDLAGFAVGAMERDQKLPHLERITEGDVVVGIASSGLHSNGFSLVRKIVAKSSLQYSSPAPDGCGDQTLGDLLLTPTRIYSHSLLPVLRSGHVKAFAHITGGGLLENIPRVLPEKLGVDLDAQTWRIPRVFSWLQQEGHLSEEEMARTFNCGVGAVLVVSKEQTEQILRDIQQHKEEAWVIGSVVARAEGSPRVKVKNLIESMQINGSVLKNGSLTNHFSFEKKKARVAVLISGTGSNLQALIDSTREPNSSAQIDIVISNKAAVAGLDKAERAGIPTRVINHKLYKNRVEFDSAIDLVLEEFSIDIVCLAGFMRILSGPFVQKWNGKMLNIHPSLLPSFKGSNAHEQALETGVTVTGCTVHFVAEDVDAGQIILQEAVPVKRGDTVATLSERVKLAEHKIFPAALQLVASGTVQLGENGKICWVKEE

[3] = molecular target: Bifunctional purine biosynthesis protein ATIC (Homo sapiens, UniProt P31939); test: Inhibition of IMPCH activity of human wild-type ATIC
Sequence of Bifunctional purine biosynthesis protein ATIC (P31939 whole entry): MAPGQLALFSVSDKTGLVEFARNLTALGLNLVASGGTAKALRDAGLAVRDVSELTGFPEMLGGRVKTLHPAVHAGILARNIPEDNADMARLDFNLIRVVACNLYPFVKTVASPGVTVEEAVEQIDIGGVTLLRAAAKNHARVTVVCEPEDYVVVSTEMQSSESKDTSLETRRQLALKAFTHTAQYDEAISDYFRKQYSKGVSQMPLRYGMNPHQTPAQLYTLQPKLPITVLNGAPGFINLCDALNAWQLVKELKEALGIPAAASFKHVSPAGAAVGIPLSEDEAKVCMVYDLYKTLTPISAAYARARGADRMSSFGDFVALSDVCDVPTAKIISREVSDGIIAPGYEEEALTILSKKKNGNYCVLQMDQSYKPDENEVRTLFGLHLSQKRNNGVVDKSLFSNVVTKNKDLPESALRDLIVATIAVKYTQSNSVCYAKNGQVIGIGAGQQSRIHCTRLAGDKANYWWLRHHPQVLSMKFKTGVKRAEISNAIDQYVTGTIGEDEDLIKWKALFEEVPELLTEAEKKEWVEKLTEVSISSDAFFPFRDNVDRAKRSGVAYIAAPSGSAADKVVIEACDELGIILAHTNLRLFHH

## O=C1NS(=O)(=O)Nc2nc[nH]c21
[1]
  Ki: > 100 µM
[2]
  Ki: > 100 µM

## O=C1NS(=O)(=O)Nc2c1ncn2[C@@H]1O[C@H](COP(=O)(O)O)[C@@H](O)[C@H]1O
[1]
  Ki: > 100 µM
[2]
  Ki: 4.8 µM

## O=C1NS(=O)(=O)Nc2c1ncn2[C@@H]1O[C@H](CO)[C@@H](O)[C@H]1O
[1]
  Ki: > 100 µM
[2]
  Ki: > 100 µM

## NC(=O)c1ncn([C@@H]2O[C@H](COP(=O)(O)O)[C@@H](O)[C@H]2O)c1NC=O [FAICAR]
[3]
  Ki: 400 nM

## Nc1nc2c(c(=O)[nH]1)C[C@@H](CCc1ccc(C(=O)N[C@@H](CCC(=O)O)C(=O)O)cc1)CN2 [LOMETREXOL]
[1]
  Ki: 0.1 µM
